The values that follow come from US20250255992A1, “COXIB-DERIVED CONJUGATE COMPOUNDS AND METHODS OF USE THEREOF” (Reiley Pharmaceuticals, Inc., priority 2020, published 2025).

As a reminder, the IC50 is the concentration that inhibits the measured activity by half.

One assay addresses COX-2 (Mus musculus (Mouse), UniProt Q05769). The experiment in a line: Cell-based COX-2 assay (PGE2 in LPS/IFN-g stimulated RAW264.7 cells). Particulars: RAW264.7 murine macrophages, LPS + IFN-g, PGE2 readout. As to the method:
Cell culture: RAW264.7 murine macrophages are obtained from the Cell Bank of Shanghai Institute of Biochemistry and Cell Biology, Chinese Academy of Sciences (Shanghai, China) and cultured in Dulbecco's modified Eagle's medium containing 100 U/ml penicillin and 100 µg/ml streptomycin at 37° C. in 5% CO2.
The cells are pre-incubated for 30 min with various doses of compounds and stimulated for 7 h with […] LPS and 10 U/ml IFN-g. The cell culture supernatants are collected immediately following treatment and centrifuged at 1,000 rpm for 5 min to remove the particulate matter. PGE2 is determined using a Prostaglandin E2 assay kit (catalog no. 62P2APEB; Cisbio Co.). […] Replace the standard by 10 μL of diluent and PGE2-d2 by 5 μL of reconstitution buffer, Cal0 (for positive control), replace the standard by 10 µL of diluent. Incubate at 4° C. overnight.
(§1) Dose-response curves are generated using XLFit (IDBS, Surrey, UK) or Prism (GraphPad Software, La Jolla, CA, US) to calculate IC50 values for each compound tested.

A further assay deals with human COX-2 (Homo sapiens (Human), UniProt P35354). The class given is biochemical. Particulars: read-out: COX-2 IC50 (μM) enzyme.
Sequence of human COX-2 (P35354 18-604 limits assumed): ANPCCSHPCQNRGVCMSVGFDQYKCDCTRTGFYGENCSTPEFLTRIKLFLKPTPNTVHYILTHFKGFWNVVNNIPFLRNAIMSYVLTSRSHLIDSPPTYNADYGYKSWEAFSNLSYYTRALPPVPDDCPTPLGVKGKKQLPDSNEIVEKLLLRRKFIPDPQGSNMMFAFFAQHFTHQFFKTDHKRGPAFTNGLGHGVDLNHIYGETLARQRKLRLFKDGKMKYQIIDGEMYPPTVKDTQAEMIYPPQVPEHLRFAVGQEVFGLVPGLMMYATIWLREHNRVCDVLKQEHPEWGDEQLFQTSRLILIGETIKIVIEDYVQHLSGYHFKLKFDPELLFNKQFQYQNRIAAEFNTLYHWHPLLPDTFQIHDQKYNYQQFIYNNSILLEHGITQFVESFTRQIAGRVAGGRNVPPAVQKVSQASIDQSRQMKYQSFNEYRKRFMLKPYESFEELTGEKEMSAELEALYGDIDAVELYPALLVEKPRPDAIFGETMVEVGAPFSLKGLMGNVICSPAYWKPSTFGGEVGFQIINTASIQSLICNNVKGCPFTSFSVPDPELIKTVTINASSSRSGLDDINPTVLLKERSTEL
A further assay deals with ovine COX-1 (Ovis aries (Sheep), UniProt P05979). The experiment in a line: COX-1/-2 enzyme assay (EIA kit), COX-1. The format is biochemical. The conditions noted are these: ovine COX-1 enzyme immunoassay. The protocol: COX-1/-2 enzyme assay: The ability of compounds to inhibit ovine COX-1 and human COX-2 is determined using a commercially available enzyme immunoassay (EIA) kit (catalog no. 701090 (COX-1); 701080 (COX-2) Cayman Chemical Co., Ann Arbor, MI, USA) according to the manufacturer's protocol. COX catalyzes the first step in the biosynthesis of AA to PGH2. PGF2α, produced from PGH2 by reduction with stannous chloride, was measured by EIA (ACE™ competitive EIA, Cayman Chemical, Ann Arbor, MI, USA). Briefly, to a series of supplied reaction buffer solutions [960 μl 0.1 M Tris-HCl (pH 8.0) containing 5 mM EDTA and 2 mM phenol] with either COX-1 or COX-2 (10 μl) enzyme in the presence of heme (10 μl), 10 μl of various concentrations of test drug solutions are added. These solutions are incubated for 15 min at 37° C. and subsequently 10 μl AA solution (100 μM) is added. The COX reaction is stopped by the addition of 30 μl stannous chloride after 2 min, mixed immediately, supernatants are 2000-fold diluted. The produced PGF2α is measured by EIA. This assay is based on the competition between PGs and a PG-acetylcholinesterase conjugate (PG tracer) for a limited amount of PG antiserum. The amount of PG tracer that is able to bind to the PG antiserum is inversely proportional to the concentration of PGs in the wells since the concentration of the PG tracer is held at a constant while the concentration of PGs varies. The specific antiserum-PG complex binds to a mouse anti-rabbit IgG that had been previously attached to the well. The plate is washed to remove any unbound reagents and 200 μl Ellman's reagent (5,5′-dithiobis-(2-nitrobenzoic acid), which contains the substrate to acetylcholine esterase, is added to the well. The product of this enzymatic reaction generates a distinct yellow color that absorbs at 406 nm. The intensity of this color, determined by spectrophotometry, is proportional to the amount of PG tracer bound to the well, which is inversely proportional to the amount of PGs present in the well during the incubation. Percent inhibition is calculated by the comparison of the compounds treated to the various control incubations.
Sequence of ovine COX-1 (P05979 25-600 limits assumed): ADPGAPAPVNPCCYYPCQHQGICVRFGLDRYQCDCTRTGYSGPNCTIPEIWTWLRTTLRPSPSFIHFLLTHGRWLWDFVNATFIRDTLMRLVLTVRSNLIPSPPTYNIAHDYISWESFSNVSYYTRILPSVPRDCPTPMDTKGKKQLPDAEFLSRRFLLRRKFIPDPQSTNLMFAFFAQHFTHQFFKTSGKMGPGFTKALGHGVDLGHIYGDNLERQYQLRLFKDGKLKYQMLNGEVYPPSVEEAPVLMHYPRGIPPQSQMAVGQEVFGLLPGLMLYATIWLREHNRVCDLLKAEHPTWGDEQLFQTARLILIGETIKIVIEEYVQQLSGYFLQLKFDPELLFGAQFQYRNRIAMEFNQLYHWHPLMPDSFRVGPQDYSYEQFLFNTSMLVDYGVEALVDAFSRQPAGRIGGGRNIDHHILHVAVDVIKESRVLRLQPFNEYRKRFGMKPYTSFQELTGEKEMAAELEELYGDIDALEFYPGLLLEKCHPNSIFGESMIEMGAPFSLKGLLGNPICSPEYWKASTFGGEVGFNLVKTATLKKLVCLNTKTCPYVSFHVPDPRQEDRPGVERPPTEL
as §1

Sequence of COX-2 (Q05769 18-604): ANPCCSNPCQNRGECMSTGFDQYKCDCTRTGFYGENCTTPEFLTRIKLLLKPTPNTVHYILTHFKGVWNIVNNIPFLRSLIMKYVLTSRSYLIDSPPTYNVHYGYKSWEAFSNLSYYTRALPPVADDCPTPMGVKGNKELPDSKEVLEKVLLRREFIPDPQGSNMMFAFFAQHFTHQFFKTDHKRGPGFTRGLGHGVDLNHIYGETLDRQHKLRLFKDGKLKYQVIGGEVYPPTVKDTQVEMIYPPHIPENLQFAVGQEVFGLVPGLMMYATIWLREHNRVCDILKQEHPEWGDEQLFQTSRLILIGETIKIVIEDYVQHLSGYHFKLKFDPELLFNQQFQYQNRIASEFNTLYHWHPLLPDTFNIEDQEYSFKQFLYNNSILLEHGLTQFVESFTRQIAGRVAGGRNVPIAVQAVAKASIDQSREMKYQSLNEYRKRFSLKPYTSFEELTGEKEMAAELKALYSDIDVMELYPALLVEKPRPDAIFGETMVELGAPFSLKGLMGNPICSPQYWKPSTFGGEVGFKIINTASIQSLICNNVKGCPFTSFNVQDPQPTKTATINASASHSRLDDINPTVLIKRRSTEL

On to `NS(=O)(=O)c1ccc(-n2nc(CCCCCN3CC[S][Re]4(=[O])[S]CC[N]4CC3)cc2-c2ccc(F)cc2)cc1` (stereo not drawn) [Compound 2], for which the IC50 was 0.66 µM at COX-2 and 1.33 µM on human COX-2.

In the case of `NS(=O)(=O)c1ccc(-n2nc(CCCCCCCN3CC[S][Re]4(=[O])[S]CC[N]4CC3)cc2-c2ccc(F)cc2)cc1` (stereo not drawn) [Compound 3], the IC50 on human COX-2 is more than 10 µM. Regarding `NS(=O)(=O)c1ccc(-n2nc(CCCCCCCCN3CC[S][Re]4(=[O])[S]CC[N]4CC3)cc2-c2ccc(F)cc2)cc1` (stereo not drawn) [Compound 4], the half-maximal inhibitory concentration (IC50) at COX-2 was 0.32 µM; on human COX-2 it was 0.59 µM.

`NS(=O)(=O)c1ccc(-n2nc(CCCCCCCCC[N+]34CC[S][Re]35(=[O])[S]CC[N]5CC4)cc2-c2ccc(F)cc2)cc1` (stereo not drawn) [Compound 5]: the concentration for half-maximal inhibition (IC50) on COX-2 is 0.15 µM; at human COX-2, 0.13 µM; against ovine COX-1 it was more than 10 µM. On to `NS(=O)(=O)c1ccc(-n2nc(CCCCCCN3CC[S][Re]4(=[O])[S]CC[N]4CC3)cc2-c2ccc(Cl)cc2)cc1` (stereo not drawn) [Compound 6], for which, at human COX-2, the IC50 came to 3.31 µM. Still for that read-out and setting: with `NS(=O)(=O)c1ccc(-n2nc(CCCCCCCN3CC[S][Re]4(=[O])[S]CC[N]4CC3)cc2-c2ccc(Cl)cc2)cc1` (stereo not drawn) [Compound 7] the figure was more than 10 µM. As to `NS(=O)(=O)c1ccc(-n2nc(CCCCCCCCC[N+]34CC[S][Re]35(=[O])[S]CC[N]5CC4)cc2-c2ccc(Cl)cc2)cc1` (stereo not drawn) [Compound 8], the half-inhibitory concentration (IC50) at COX-2 came out at 0.2 µM; on human COX-2, 0.19 µM.

As to `NS(=O)(=O)c1ccc(-n2nc(CCCCCCCCN3CC[S][Re]4(=[O])[S]CC[N]4CC3)cc2-c2ccc(Cl)cc2)cc1` (stereo not drawn) [Compound 9], the 50% inhibitory concentration (IC50) on COX-2 was 0.19 µM; at human COX-2, 0.11 µM. In the case of `COc1ccc(-c2cc(CCCCCCCCC[N+]34CC[S][Re]35(=[O])[S]CC[N]5CC4)nn2-c2ccc(S(N)(=O)=O)cc2)cc1` (stereo not drawn) [Compound 10], the 50% inhibitory concentration (IC50) at COX-2 was 0.16 µM; at human COX-2 it was 0.06 µM; against ovine COX-1, more than 10 µM. Turning to `Cc1ccc(-c2cc(CCCCCCCCCN3CC[S][Re]4(=[O])[S]CC[N]4CC3)nn2-c2ccc(S(N)(=O)=O)cc2)cc1` (stereo not drawn) [Compound 11], the IC50 at COX-2 turned out to be 0.2 µM; on human COX-2, 4.49 µM.

In the case of `NS(=O)(=O)c1ccc(-n2nc(COCCCCCC[N+]34CC[S][Re]35(=[O])[S]CC[N]5CC4)cc2-c2ccc(F)cc2)cc1` (stereo not drawn) [Compound 14], the IC50 on human COX-2 was 2.36 µM. In the case of `NS(=O)(=O)c1ccc(-n2nc(COCCCC[N+]34CC[S][Re]35(=[O])[S]CC[N]5CC4)cc2-c2ccc(F)cc2)cc1` (stereo not drawn) [Compound 15], at human COX-2, the IC50 amounted to 2.37 µM.

Take `NS(=O)(=O)c1ccc(-n2nc(COCCCCCCC[N+]34CC[S][Re]35(=[O])[S]CC[N]5CC4)cc2-c2ccc(F)cc2)cc1` (stereo not drawn) [Compound 16]: the concentration for half-maximal inhibition (IC50) was 0.21 µM on COX-2, 0.31 µM at human COX-2 and more than 10 µM against ovine COX-1.

For `NS(=O)(=O)c1ccc(-n2nc(COCCCOCCCN3CC[S][Re]4(=[O])[S]CC[N]4CC3)cc2-c2ccc(F)cc2)cc1` (stereo not drawn) [Compound 17], the IC50 at human COX-2 was 4.15 µM. Still for that read-out and setting: for `NS(=O)(=O)c1ccc(-n2nc(COCCCCCCN3CC[S][Re]4(=[O])[S]CC[N]4CC3)cc2-c2ccc(Cl)cc2)cc1` (stereo not drawn) [Compound 18] the value was more than 10 µM; for `COc1ccc(-c2cc(COCCCCCCN3CC[S][Re]4(=[O])[S]CC[N]4CC3)nn2-c2ccc(S(N)(=O)=O)cc2)cc1` (stereo not drawn) [Compound 19], 4.51 µM. In the case of `COc1ccc(-c2cc(COCCCCCCCN3CC[S][Re]4(=[O])[S]CC[N]4CC3)nn2-c2ccc(S(N)(=O)=O)cc2)cc1` (stereo not drawn) [Compound 20], the IC50 on COX-2 turned out to be 0.22 µM; at human COX-2, 0.54 µM. With `Cc1ccc(-c2cc(COCCCCCCC[N+]34CC[S][Re]35(=[O])[S]CC[N]5CC4)nn2-c2ccc(S(N)(=O)=O)cc2)cc1` (stereo not drawn) [Compound 21], the figures for the IC50 at COX-2 and at human COX-2 were 0.15 µM and 2.48 µM, respectively. The matching figures for `NS(=O)(=O)c1ccc(-c2c(-c3ccccc3)noc2CCCCCC[N+]23CC[S][Re]24(=[O])[S]CC[N]4CC3)cc1` (stereo not drawn) [Compound 26]: 0.23 µM and 0.16 µM. Turning to `NS(=O)(=O)c1ccc(-c2c(-c3ccccc3)noc2CCCCCCC[N+]23CC[S][Re]24(=[O])[S]CC[N]4CC3)cc1` (stereo not drawn) [Compound 27], the half-inhibitory concentration (IC50) at COX-2 is 0.07 µM; on human COX-2 it was 0.07 µM; at ovine COX-1, more than 10 µM. As for `NS(=O)(=O)c1ccc(-c2c(-c3ccccc3)noc2CCCCCCCCC[N+]23CC[S][Re]24(=[O])[S]CC[N]4CC3)cc1` (stereo not drawn) [Compound 28], the figures for the IC50 on COX-2, at human COX-2 and against ovine COX-1 were 0.025 µM, 0.019 µM and more than 10 µM, respectively.
